Assay results from PubChem BioAssay (NCI).
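GI50 marks 50% less growth. TGI: total growth inhibition.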

Experiments:
Assay in all cases: DTP human tumour cell line panel, 384-well format
[1] = system: NCI-H322M lung
[2] = system: BT-549 breast
[3] = system: PC-3 prostate
[4] = system: MDA-MB-468 breast
[5] = system: OVCAR-4 ovarian
[6] = system: SR leukemia
[7] = system: TK-10 renal
[8] = system: SK-OV-3 ovarian
[9] = system: HL-60(TB) leukemia
[10] = system: NCI-H522 lung
[11] = system: NCI-H23 lung
[12] = system: T-47D breast
[13] = system: K-562 leukemia
[14] = system: A549 NSCLC
[15] = system: UO-31 renal
[16] = system: MOLT-4 leukemia
[17] = system: HCT-15 colon
[18] = system: SNB-75 CNS
[19] = system: HCC-2998 colon
[20] = system: UACC-257 melanoma
[21] = system: CCRF-CEM leukemia
[22] = system: LOX IMVI melanoma
[23] = system: A498 renal
[24] = system: NCI-H226 lung
[25] = system: 786-0 renal
[26] = system: EKVX NSCLC
[27] = system: HOP-62 NSCLC
[28] = system: RXF 393 renal
[29] = system: MDA-MB-231 breast
[30] = system: KM12 colon
[31] = system: HT29 colon
[32] = system: SW-620 colon
[33] = system: HCT-116 colon
[34] = system: MDA-MB-435 melanoma
[35] = system: NCI/ADR-RES ovarian
[36] = system: ACHN renal
[37] = system: COLO 205 colon
[38] = system: MCF7 breast
[39] = system: SK-MEL-5 melanoma
[40] = system: MALME-3M melanoma
[41] = system: DU-145 prostate
[42] = system: UACC-62 melanoma
[43] = system: SN12C renal
[44] = system: IGROV1 ovarian
[45] = system: NCI-H460 NSCLC
[46] = system: M14 melanoma
[47] = system: OVCAR-3 ovarian
[48] = system: SNB-19 CNS
[49] = system: SF-295 CNS
[50] = system: SF-539 CNS
[51] = system: HS 578T breast
[52] = system: U251 glioblastoma
[53] = system: SK-MEL-28 melanoma
[54] = system: HOP-92 NSCLC
[55] = system: RPMI-8226 leukemia
[56] = system: OVCAR-8 ovarian
[57] = system: SF-268 CNS
[58] = system: CAKI-1 renal
[59] = system: OVCAR-5 ovarian

With `Nc1nc(-n2cccn2)nc(-n2cccn2)c1Br` the GI50 [1] was > 100000 nM, the TGI [1] was > 100 µM and the GI50 [2] was > 100000 nM. For the same molecule, the TGI [2] was > 100 µM, the GI50 [3] was > 100000 nM and the TGI [3] was > 100 µM. For the same molecule, the GI50 [4] was > 100000 nM, the TGI [4] was > 100000 nM and the GI50 [5] was > 100 µM. For the same molecule, the TGI [5] was > 100 µM, the GI50 [6] was > 100 µM and the TGI [6] was > 100 µM. The GI50 [7] was > 100000 nM, the TGI [7] was > 100 µM and the GI50 [8] was > 100000 nM. The TGI [8] was > 100 µM, the GI50 [9] was > 100000 nM and the TGI [9] was > 100000 nM. For the same molecule, the GI50 [10] was > 100000 nM, the TGI [10] was > 100000 nM and the GI50 [11] was > 100000 nM. The TGI [11] was > 100000 nM, the GI50 [12] was > 100000 nM and the TGI [12] was > 100 µM. For the same molecule, the GI50 [13] was > 100000 nM, the TGI [13] was > 100000 nM and the GI50 [14] was > 100000 nM. The TGI [14] was > 100 µM, the GI50 [15] was > 100000 nM and the TGI [15] was > 100 µM. The GI50 [16] was > 100000 nM, the TGI [16] was > 100000 nM and the GI50 [17] was > 100000 nM. For the same molecule, the TGI [17] was > 100 µM, the GI50 [18] was > 100000 nM and the TGI [18] was > 100 µM. The GI50 [19] was > 100000 nM, the TGI [19] was > 100000 nM and the GI50 [20] was > 100000 nM. The TGI [20] was > 100000 nM, the GI50 [21] was > 100000 nM and the TGI [21] was > 100000 nM. The GI50 [22] was > 100000 nM, the TGI [22] was > 100000 nM and the GI50 [23] was > 100000 nM. The TGI [23] was > 100 µM, the GI50 [24] was > 100000 nM and the TGI [24] was > 100 µM. For the same molecule, the GI50 [25] was > 100000 nM, the TGI [25] was > 100 µM and the GI50 [26] was > 100000 nM. For the same molecule, the TGI [26] was > 100 µM, the GI50 [27] was > 100000 nM and the TGI [27] was > 100 µM. The GI50 [28] was > 100000 nM, the TGI [28] was > 100000 nM and the GI50 [29] was > 100000 nM. The TGI [29] was > 100 µM, the GI50 [30] was > 100000 nM and the TGI [30] was > 100 µM. The GI50 [31] was > 100000 nM, the TGI [31] was > 100000 nM and the GI50 [32] was > 100000 nM. For the same molecule, the TGI [32] was > 100 µM, the GI50 [33] was > 100000 nM and the TGI [33] was > 100000 nM. For the same molecule, the GI50 [34] was > 100000 nM, the TGI [34] was > 100000 nM and the GI50 [35] was > 100000 nM. The TGI [35] was > 100 µM, the GI50 [36] was > 100000 nM and the TGI [36] was > 100 µM. For the same molecule, the GI50 [37] was > 100000 nM, the TGI [37] was > 100000 nM and the GI50 [38] was > 100000 nM. The TGI [38] was > 100 µM, the GI50 [39] was > 100000 nM and the TGI [39] was > 100000 nM. The GI50 [40] was > 100000 nM, the TGI [40] was > 100000 nM and the GI50 [41] was > 100000 nM. The TGI [41] was > 100 µM, the GI50 [42] was > 100000 nM and the TGI [42] was > 100000 nM. The GI50 [43] was > 100000 nM, the TGI [43] was > 100 µM and the GI50 [44] was > 100000 nM. For the same molecule, the TGI [44] was > 100 µM, the GI50 [45] was > 100000 nM and the TGI [45] was > 100 µM. The GI50 [46] was > 100000 nM, the TGI [46] was > 100000 nM and the GI50 [47] was > 100000 nM. For the same molecule, the TGI [47] was > 100000 nM, the GI50 [48] was > 100000 nM and the TGI [48] was > 100 µM. For the same molecule, the GI50 [49] was > 100000 nM, the TGI [49] was > 100 µM and the GI50 [50] was > 100000 nM. The TGI [50] was > 100 µM, the GI50 [51] was > 100000 nM and the TGI [51] was > 100 µM. The GI50 [52] was > 100000 nM, the TGI [52] was > 100 µM and the GI50 [53] was > 100000 nM. The TGI [53] was > 100000 nM, the GI50 [54] was > 100000 nM and the TGI [54] was > 100 µM. For the same molecule, the GI50 [55] was > 100000 nM, the TGI [55] was > 100000 nM and the GI50 [56] was > 100000 nM. For the same molecule, the TGI [56] was > 100 µM, the GI50 [57] was > 100000 nM and the TGI [57] was > 100000 nM. The GI50 [58] was > 100000 nM and the TGI [58] was > 100 µM.
`Cc1ccc(NC(=O)c2ccnc(C(F)(F)F)c2)cc1-c1cc(OCCO)nc(N2CCOCC2)c1` showed a GI50 [1] of 2010 nM, a TGI [1] of 16.2 µM and a GI50 [2] of 1210 nM. The TGI [2] was 6.68 µM, the GI50 [3] was 750 nM and the TGI [3] was 14.2 µM. It also gave a GI50 [4] of 359 nM, a TGI [4] of 1270 nM and a GI50 [59] of 675 nM. For the same molecule, the TGI [59] was 8.88 µM, the GI50 [5] was 3.87 µM and the TGI [5] was 20 µM. It also gave a GI50 [7] of 1030 nM, a TGI [7] of 87.6 µM and a GI50 [8] of 1780 nM. It also gave a TGI [8] of 17.8 µM, a GI50 [9] of 68 nM and a TGI [9] of 1090 nM. For the same molecule, the GI50 [10] was 274 nM, the TGI [10] was 755 nM and the GI50 [11] was 79.2 nM. It also gave a TGI [11] of 1100 nM, a GI50 [12] of 754 nM and a TGI [12] of 5.92 µM. It also gave a GI50 [13] of 428 nM, a TGI [13] of 1720 nM and a GI50 [14] of 591 nM. The TGI [14] was 14.5 µM, the GI50 [15] was 1120 nM and the TGI [15] was 3.41 µM. It also gave a GI50 [16] of 172 nM, a TGI [16] of 317 nM and a GI50 [17] of 339 nM. The TGI [17] was 9.05 µM, the GI50 [18] was 1340 nM and the TGI [18] was 9.72 µM. It also gave a GI50 [19] of 224 nM, a TGI [19] of 1270 nM and a GI50 [20] of 272 nM. The TGI [20] was 1310 nM, the GI50 [21] was 385 nM and the TGI [21] was 1460 nM. The GI50 [22] was 171 nM, the TGI [22] was 1170 nM and the GI50 [23] was 1200 nM. It also gave a TGI [23] of 7.92 µM, a GI50 [24] of 577 nM and a TGI [24] of 6.56 µM. For the same molecule, the GI50 [25] was 997 nM, the TGI [25] was 11.7 µM and the GI50 [26] was 2850 nM. The TGI [26] was 14.8 µM, the GI50 [27] was 1230 nM and the TGI [27] was 11.5 µM. The GI50 [28] was 342 nM, the TGI [28] was 1960 nM and the GI50 [29] was 37.3 nM. For the same molecule, the TGI [29] was 12.1 µM, the GI50 [30] was 523 nM and the TGI [30] was 5.77 µM. The GI50 [31] was 306 nM, the TGI [31] was 1990 nM and the GI50 [32] was 282 nM. It also gave a TGI [32] of 10.5 µM, a GI50 [33] of 243 nM and a TGI [33] of 2480 nM. For the same molecule, the GI50 [34] was 289 nM, the TGI [34] was 922 nM and the GI50 [35] was 2190 nM. For the same molecule, the TGI [35] was 5.24 µM, the GI50 [36] was 787 nM and the TGI [36] was 12.3 µM. It also gave a GI50 [37] of 214 nM, a TGI [37] of 1120 nM and a GI50 [38] of 951 nM. It also gave a TGI [38] of 10.9 µM, a GI50 [39] of 155 nM and a TGI [39] of 437 nM. For the same molecule, the GI50 [40] was 85.6 nM, the TGI [40] was 316 nM and the GI50 [41] was 2420 nM. For the same molecule, the TGI [41] was > 100 µM, the GI50 [42] was 152 nM and the TGI [42] was 526 nM. It also gave a GI50 [43] of 1180 nM, a TGI [43] of 10.4 µM and a GI50 [44] of 697 nM. It also gave a TGI [44] of 11.4 µM, a GI50 [45] of 379 nM and a TGI [45] of 10.6 µM. It also gave a GI50 [46] of 129 nM, a TGI [46] of 603 nM and a GI50 [47] of 461 nM. It also gave a TGI [47] of 1790 nM, a GI50 [48] of 2380 nM and a TGI [48] of 18 µM. It also gave a GI50 [49] of 569 nM, a TGI [49] of 13.9 µM and a GI50 [50] of 927 nM. It also gave a TGI [50] of 3.75 µM, a GI50 [51] of 1190 nM and a TGI [51] of 3.65 µM. For the same molecule, the GI50 [52] was 595 nM, the TGI [52] was 5.43 µM and the GI50 [53] was 253 nM. It also gave a TGI [53] of 758 nM, a GI50 [54] of 928 nM and a TGI [54] of 3.49 µM. The GI50 [55] was 344 nM, the TGI [55] was 974 nM and the GI50 [56] was 777 nM. It also gave a TGI [56] of 4.6 µM, a GI50 [57] of 211 nM and a TGI [57] of 532 nM. The GI50 [58] was 847 nM and the TGI [58] was 18.1 µM.
